This experiment has as its system RF strain of HIV-1. The experiment can be described thus: HIV-1 cell protection assay (XTT dye reduction). In kind it is cell-based. Conditions: Human immunodeficiency virus 1, CEM-SS, 144 h, CEM-SS cells infected with HIV-1 RF, six days, XTT formazan; read-out: EC50. The procedure:
Example 61: HIV-1 Cell Protection Assay
The antiviral activities of potential modulator compounds (test compounds) were determined in HIV-1 cell protection assays using the RF strain of HIV-1, CEM-SS cells, and the XTT dye reduction method (Weislow, O.S. et al., J. Natl. Cancer Inst. 81: 577-586 (1989)). Subject cells were infected with HIV-1 RF virus at an moi of 0.025 to 0.819 or mock infected with medium only and added at 2 x 10^4 cells per well into 96 well plates containing half-log dilutions of test compounds. Six days later, 50 µl of XTT solution (1 mg/ml XTT tetrazolium and […] phenazine methosulfate) were added to the wells and the plates were reincubated for four hours. Viability, as determined by the amount of XTT formazan produced, was quantified spectrophotometrically by absorbance at 450 nm.
Data from CPE assays were expressed as the percent of formazan produced in compound-treated cells compared to formazan produced in wells of uninfected, compound-free cells. […] The therapeutic index was calculated by dividing the cytotoxicity (CC50) by the antiviral activity (EC50).
(Tetrazolium assays rely on reduction of a dye to a coloured formazan, in cell work by metabolically active cells.)

Broadly, the EC50 is the midpoint of the concentration-response curve.

Regarding `O=c1c2ncc3c(c(COCCc4ccccn4)cn3Cc3ccc(F)cc3)c2ccn1O` [Example 33, 3-(4-fluorobenzyl)-7-hydroxy-1-[(2-pyridin-2-ylethoxy)methyl]-3,7-dihydro-6H-pyrrolo[2,3-c]-1,7-naphthyridin-6-one], the EC50 came out at 3 nM. In the case of `O=c1c2ncc3c(c(COCCOC4CCCCC4)cn3Cc3ccc(F)cc3)c2ccn1O` [Example 34, 1-{[2-(cyclohexyloxy)ethoxy]methyl}-3-(4-fluorobenzyl)-7-hydroxy-3,7-dihydro-6H-pyrrolo[2,3-c]-1,7-naphthyridin-6-one], the EC50 came out at 2 nM. Turning to `COCCOCc1cn(Cc2ccc(F)cc2)c2cnc3c(=O)n(O)ccc3c12` [Example 36, 3-(4-fluorobenzyl)-7-hydroxy-1-[(2-methoxyethoxy)methyl]-3,7-dihydro-6H-pyrrolo[2,3-c]-1,7-naphthyridin-6-one], the EC50 turned out to be 0.4 nM. On to `O=c1c2ncc3c(c(COC4CCOCC4)cn3Cc3ccc(F)cc3)c2ccn1O` [Example 37, 3-(4-fluorobenzyl)-7-hydroxy-1-[(tetrahydro-2H-pyran-4-yloxy)methyl]-3,7-dihydro-6H-pyrrolo[2,3-c]-1,7-naphthyridin-6-one], for which the EC50 turned out to be 1 nM. `O=c1c2ncc3c(c(CNC4(CO)CCCC4)cn3Cc3ccc(F)cc3)c2ccn1O` [Example 39, 3-(4-fluorobenzyl)-7-hydroxy-1-({[1-(hydroxymethyl)cyclopentyl]amino}methyl)-3,7-dihydro-6H-pyrrolo[2,3-c]-1,7-naphthyridin-6-one]: the EC50 is 4 nM.

`CCCNCc1cn(Cc2ccc(F)cc2)c2cnc3c(=O)n(O)ccc3c12` [Example 40, 3-(4-fluorobenzyl)-7-hydroxy-1-[(propylamino)methyl] -3,7-dihydro-6H-pyrrolo[2,3-c]-1,7-naphthyridin-6-one]: the EC50 stood at 2 nM. For `Cc1cccc(CNCc2cn(Cc3ccc(F)cc3)c3cnc4c(=O)n(O)ccc4c23)c1` [Example 41, 3-(4-fluorobenzyl)-7-hydroxy-1-{[(3-methylbenzyl)amino]methyl}-3,7-dihydro-6H-pyrrolo[2,3-c]-1,7-naphthyridin-6-one], the EC50 worked out at 3 nM. The result for `Cc1cnc(CNCc2cn(Cc3ccc(F)cc3)c3cnc4c(=O)n(O)ccc4c23)cn1` [Example 42, 3-(4-fluorobenzyl)-7-hydroxy-1-({[(5-methylpyrazin-2-yl)methyl]amino}methyl)-3,7-dihydro-6H-pyrrolo[2,3-c]-1,7-naphthyridin-6-one] reads 3 nM. Next, `O=c1c2ncc3c(c(CNCc4ccc(C(F)(F)F)cc4)cn3Cc3ccc(F)cc3)c2ccn1O` [Example 43, 3-(4-fluorobenzyl)-7-hydroxy-1-({[4-(trifluoromethyl)benzyl]amino)methyl)-3,7-dihydro-6H-pyrrolo[2,3-c]-1,7-naphthyridin-6-one]: 0.8 nM; `O=c1c2ncc3c(c(CNCc4ccccn4)cn3Cc3ccc(F)cc3)c2ccn1O` [Example 44, 3-(4-fluorobenzyl)-7-hydroxy-1-{[(pyridin-2-ylmethyl)amino]methyl}-3,7-dihydro-6H-pyrrolo[2,3-c]-1,7-naphthyridin-6-one]: 0.74 nM. The result for `O=C1c2ncc3c(ccn3Cc3ccc(F)cc3)c2CCCN1O` [Example 45, 3-(4-fluorobenzyl)-7-hydroxy-7,8,9,10-tetrahydropyrrolo[3',2' :4,5]pyrido[2,3-c]azepin-6(3H)-one] reads 20 nM. Take `CCCCc1cc2c(ncc3c2ccn3Cc2ccc(F)cc2)c(=O)n1O` [Example 46, 8-butyl-3-(4-fluorobenzyl)-7-hydroxy-3,7-dihydro-6H-pyrrolo[2,3-c]-1,7-naphthyridin-6-one]: the EC50 amounted to 9.6 nM. On to `Cc1cc2c(ncc3c2ccn3Cc2ccc(F)cc2)c(=O)n1O` [Example 47, 3-(4-fluorobenzyl)-7-hydroxy-8-methyl-3,7-dihydro-6H-pyrrolo[2,3-c]-1,7-naphthyridin-6-one], for which the EC50 came out at 0.23 nM. On to `CCCN(CCO)Cc1cn(Cc2ccc(F)cc2)c2cnc3c(=O)n(O)ccc3c12` [Example 48, 3-(4-fluorobenzyl)-7-hydroxy-1-{[(2-hydroxyethyl)(propyl)amino]methyl}-3,7-dihydro-6H-pyrrolo[2,3-c]-1,7-naphthyridin-6-one], for which the EC50 turned out to be 1.2 nM. The result for `O=c1c2ncc3c(c(CN4CCCCC4CO)cn3Cc3ccc(F)cc3)c2ccn1O` (stereo not shown) [Example 49, 3-(4-fluorobenzyl)-7-hydroxy-1-{[2-(hydroxymethyl)piperidin-1-yl]methyl}-3,7-dihydro-6H-pyrrolo[2,3-c]-1,7-naphthyridin-6-one] reads 14 nM. The result for `CCN(CC)CCN(CC)Cc1cn(Cc2ccc(F)cc2)c2cnc3c(=O)n(O)ccc3c12` [Example 50, 1-{[[2-(diethylamino)ethyl](ethyl)amino]methyl}-3-(4-fluorobenzyl)-7-hydroxy-3,7-dihydro-6H-pyrrolo[2,3-c]-1,7-naphthyridin-6-one] reads 8.6 nM; that for `CCN(Cc1ccc(C)cc1)Cc1cn(Cc2ccc(F)cc2)c2cnc3c(=O)n(O)ccc3c12` [Example 51, 1-{[ethyl(4-methylbenzyl)amino]methyl}-3-(4-fluorobenzyl)-7-hydroxy-3,7-dihydro-6H-pyrrolo[2,3-c]-1,7-naphthyridin-6-one], 1.3 nM; that for `CCS(=O)(=O)N1CCN(Cc2cn(Cc3ccc(F)cc3)c3cnc4c(=O)n(O)ccc4c23)CC1` [Example 52, 1-{[4-(ethylsulfonyl)piperazin-1-yl]methyl}-3-(4-fluorobenzyl)-7-hydroxy-3,7-dihydro-6H-pyrrolo[2,3-c]-1,7-naphthyridin-6-one], 1.6 nM. In the case of `O=c1c2ncc3c(c(CN4CCC(O)CC4)cn3Cc3ccc(F)cc3)c2ccn1O` [Example 53, 3-(4-fluorobenzyl)-7-hydroxy-1-[(4-hydroxypiperidin-1-yl)methyl]-3,7-dihydro-6H-pyrrolo[2,3-c]-1,7-naphthyridin-6-one], the EC50 is 13 nM. On to `CN(Cc1ccccc1)Cc1cn(Cc2ccc(F)cc2)c2cnc3c(=O)n(O)ccc3c12` [Example 54, 1-{[benzyl(methyl)amino]methyl}-3-(4-fluorobenzyl)-7-hydroxy-3,7-dihydro-6H-pyrrolo[2,3-c]-1,7-naphthyridin-6-one], for which the EC50 stood at 0.42 nM. `O=c1c2ncc3c(c(CN4CCN5C[C@H](O)CC5C4)cn3Cc3ccc(F)cc3)c2ccn1O` (stereo partly drawn) [Example 55, 3-(4-fluorobenzyl)-7-hydroxy-1-{[(7R)-7-hydroxyhexahydropyrrolo[1,2-a]pyrazin-2(1 H)-yl]methyl}-3,7-dihydro-6H-pyrrolo[2,3-c]-1,7-naphthyridin-6-one]: the EC50 amounted to 69 nM. Regarding `O=C1NC[C@@H]2CCN(Cc3cn(Cc4ccc(F)cc4)c4cnc5c(=O)n(O)ccc5c34)C[C@H]12` [Example 56, 3-(4-fluorobenzyl)-7-hydroxy-1-{[(3aR,7aR)-3-oxooctahydro-5H-pyrrolo[3,4-c]pyridin-5-yl]methyl}-3,7-dihydro-6H-pyrrolo[2,3-c]-1,7-naphthyridin-6-one], the EC50 worked out at 14 nM.

Turning to `O=c1c2ncc3c(c(CN4CCOCC4)cn3Cc3ccc(F)cc3)c2ccn1O` [Example 57, 3-(4-fluorobenzyl)-7-hydroxy-1-(morpholin-4-ylmethyl)-3,7-dihydro-6H-pyrrolo[2,3-c]-1,7-naphthyridin-6-one], the EC50 stood at 0.32 nM. As for `O=c1c2ncc3c(c(CN4CCN(CCN5CCOCC5)CC4)cn3Cc3ccc(F)cc3)c2ccn1O` [Example 58, 3-(4-fluorobenzyl)-7-hydroxy-1-{[4-(2-morpholin-4-ylethyl)piperazin-1-yl]methyl}-3,7-dihydro-6H-pyrrolo[2,3-c]-1,7-naphthyridin-6-one], the EC50 came out at 32 nM.

For the molecule `CN(Cc1cnn(-c2ccccc2)c1)Cc1cn(Cc2ccc(F)cc2)c2cnc3c(=O)n(O)ccc3c12` [Example 59, 3-(4-fluorobenzyl)-7-hydroxy-1-({methyl[(1-phenyl-1 H-pyrazol-4-yl)methyl]amino}methyl)-3,7-dihydro-6H-pyrrolo[2,3-c]-1,7-naphthyridin-6-one], the EC50 was found to be 0.74 nM.

(Values after patent publication EP1873155A1, “Inhibitors of the HIV integrase enzyme” (PFIZER INC., priority 2004, dated 2005).)
